Entries after “also recorded” stand apart in the source; their conditions may differ.
How the values were obtained:
[1] = test system: sP+ axons in the dorsal horn of the spinal cord; experiment: Substance P (sP) immunohistochemistry of the spinal cord after PG-ED injection; format: in vivo, Yucatan miniature swine
Protocol: (§1) The study was approved by the Institutional Animal Care and Use Committee of the Mayo Clinic. Female Yucatan miniature swine (Exemplar Genetics, Sioux Center, Iowa, USA) weighing 25-45 kg at the time of RTX administration were used. For both procedures (i.e., ACLT and PG-ED injection), the pigs were anesthetized by intramuscular injection of Telazol (tiletamine and zolazepam, 5 mg/kg; Fort Dodge Animal Health, Fort Dodge, Iowa, USA), xylazine (2 mg/kg; Akorn, Decatur, Ill., USA), and glycopyrrolate (0.01 mg/kg; Baxter Healthcare, Deerfield, Ill., USA), followed by endotracheal intubation and anesthesia maintenance with 1.5%-2% isoflurane (Piramal Healthcare, Bethlehem, Pa., USA). For antibiotic prophylaxis, the animals were given a single dose of intramuscular ceftiofur (5 mg/kg; Pfizer, New York, N.Y., USA). For postoperative analgesia, the animals received a single dose of slow release buprenorphine (0.18 mg/kg; Wildlife Pharmaceuticals, Windsor, Colo., USA) intramuscularly and then oral carprofen (3 mg/kg; Pfizer Animal Health, New York, N.Y., USA) as needed for the first three postoperative days. For CTF guided PG-ED injection of RTX, a clinical CT scanner (Definition DS, Siemens Healthcare) with interventional CTF hardware and software packages was used. A full CT scan of the lumbosacral 13 spine was first performed to visualize the spinal anatomy and to identify the optimal access routes to the targeted PG-ED segments. The CT scanner acquisition settings were the same as reported previously (J. Pleticha, et al., Pig lumbar spine anatomy and imaging-guided lateral lumbar puncture: A new large animal model for intrathecal drug delivery, J. Neurosci. Methods 216, 10-15 (2013)). Next, a 22 G, 6″ spinal needle with Quincke tip (Kimberly-Clark, Roswell, Ga., USA) was advanced to the PG-ED space following the predetermined trajectory. […]

[2] = test system: other neuronal populations in the spinal cord (NeuN; primary motor neurons); experiment: Neuronal nuclei (NeuN) staining of the spinal cord after PG-ED injection; format: in vivo, Yucatan miniature swine; conditions: PG-ED injection of RTX; FIGS. 3A-3D
Protocol: as §1, with “used.” for “used. A full CT scan of the lumbosacral 13 spine was first performed to visualize the spinal anatomy and to identify the optimal access routes to the targeted PG-ED segments. The CT scanner acquisition settings were the same as reported previously (J. Pleticha, et al., Pig lumbar spine anatomy and imaging-guided lateral lumbar puncture: A new large animal model for intrathecal drug delivery, J. Neurosci. Methods 216, 10-15 (2013)). Next, a 22 G, 6″ spinal needle with Quincke tip (Kimberly-Clark, Roswell, Ga., USA) was advanced to the PG-ED space following the predetermined trajectory.”

[3] = test system: swine with gait asymmetry due to chronic knee pain induced by unilateral ACLT; experiment: Blinded behavioral assessment of the limp in the ACLT knee osteoarthritis model; format: in vivo, Yucatan miniature swine
Protocol: as §1

rats = conditions: subcutaneous and epidural administration; cited from earlier work

Structure (SMILES) | sP+ axonal terminals in the dorsal horn at injected spinal levels, ACLT animals ([1]; ACLT pigs, n=3 RTX, PG-ED at ipsilateral L4, L5, 51, and S2, FIGS. 4A-4F) | RTX dosed animals with low/none sP histology (blinded observer) ([1]; Example 7, second group of pigs, PG-ED, doses of 1.5 μg and 5 μg, P=0.002) | sP+ axons/fibers in the dorsal horn of the spinal cord at the injected levels ([1]; PG-ED injection, 5 μg RTX in 500 μl diluent per spinal level, blinded analysis, n=10 animals in study, sign test p<0.001) | NeuN staining (spinal cord neurons, motor neurons of the anterior horn) [2] | limp / gait asymmetry, before vs after injection (blinded observers) ([3]; ACLT pigs, n=3 RTX, PG-ED at ipsilateral L4, L5, 51, and S2, 3-5 weeks after administration, sign test p<0.02) | clinically observed pain-related behavior (blinded observer) ([3]; Example 7, pigs with knee osteoarthritis, n=8, PG-ED, p=0.03) | thermal analgesia, time without restoration of pain sensitivity (rats) | weight-bearing asymmetry ([3]; ACLT pigs, intramuscular, unblinded observations)
C=C(C)[C@]12C[C@@H](C)[C@@]34OC(Cc5ccccc5)(O[C@@H]1[C@@H]3C=C(COC(=O)Cc1ccc(O)c(OC)c1)C[C@]1(O)C(=O)C(C)=C[C@@H]41)O2 [RTX] | complete loss of sP+ fibers; also recorded: complete loss of the sP+ axonal terminals | 6 of 6 | no sP staining; also recorded: complete loss of sP+ axons | unaffected; also recorded: not affected | improvements in symmetric weight bearing; also recorded: improvement of limp in all animals; also recorded: all animals receiving RTX improved; also recorded: significant reversal of gait asymmetry | improved | over 7 days | 
CN1CC[C@]23c4c5ccc(O)c4O[C@H]2[C@@H](O)C=C[C@H]3[C@H]1C5 [morphine] |  |  |  |  |  |  |  | diminished weight-bearing asymmetry

— US20200261409A1, “METHODS FOR PAIN TREATMENT USING RESINIFERATOXIN” (priority 2015, published 2020)
